Results published in ChEMBL document CHEMBL1155237, “Selective inhibitors of the mutant B-Raf pathway: discovery of a potent and orally bioavailable aminoisoquinoline” (J Med Chem, 2009).

Tests used:
[1] = target: Dual specificity protein kinase CLK4 (Homo sapiens) (UniProt Q9HAZ1); experiment: Inhibition of CLK4 assessed as enzyme activity at 1 uM relative to untreated control; set-up: scale not given: the % may be the effect or the level left
A-375 = experiment: Antitumor activity against human A375 SQ2 cells xenografted in CD1 mouse assessed as inhibition of tumor growth at 2 mg/kg, po qd for 14 days; type: functional; settings: A375-SQ2, 336 h
[2] = target: MAP/microtubule affinity-regulating kinase 4 (Homo sapiens) (UniProt Q96L34); experiment: Inhibition of MARK4 assessed as enzyme activity at 1 uM relative to untreated control; set-up: scale not given: the % may be the effect or the level left
Sequence of MAP/microtubule affinity-regulating kinase 4 (Homo sapiens) (Q96L34 whole entry): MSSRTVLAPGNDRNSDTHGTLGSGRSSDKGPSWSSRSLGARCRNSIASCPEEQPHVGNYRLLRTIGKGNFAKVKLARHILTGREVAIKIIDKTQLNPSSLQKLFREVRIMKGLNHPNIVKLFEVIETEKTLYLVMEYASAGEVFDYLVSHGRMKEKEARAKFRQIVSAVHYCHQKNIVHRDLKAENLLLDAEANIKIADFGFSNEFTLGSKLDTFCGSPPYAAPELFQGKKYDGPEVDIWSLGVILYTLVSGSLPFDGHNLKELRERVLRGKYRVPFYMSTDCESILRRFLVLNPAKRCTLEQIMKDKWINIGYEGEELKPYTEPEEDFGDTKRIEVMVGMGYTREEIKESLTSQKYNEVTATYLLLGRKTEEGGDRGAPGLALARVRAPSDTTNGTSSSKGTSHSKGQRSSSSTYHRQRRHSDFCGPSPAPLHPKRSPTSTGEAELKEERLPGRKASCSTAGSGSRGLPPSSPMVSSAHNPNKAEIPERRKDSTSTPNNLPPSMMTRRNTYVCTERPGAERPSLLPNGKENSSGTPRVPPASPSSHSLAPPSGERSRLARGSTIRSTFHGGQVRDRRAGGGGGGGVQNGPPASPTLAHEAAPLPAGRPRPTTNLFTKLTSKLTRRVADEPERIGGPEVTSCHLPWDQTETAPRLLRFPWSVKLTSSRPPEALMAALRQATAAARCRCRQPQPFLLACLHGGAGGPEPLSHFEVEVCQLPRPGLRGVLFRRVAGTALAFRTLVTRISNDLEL

[3] = target: Mitogen-activated protein kinase 8 (Homo sapiens) (UniProt P45983); experiment: Inhibition of JNK1 assessed as enzyme activity at 1 uM relative to untreated control; set-up: scale not given: the % may be the effect or the level left
Sequence of Mitogen-activated protein kinase 8 (Homo sapiens) (P45983 whole entry): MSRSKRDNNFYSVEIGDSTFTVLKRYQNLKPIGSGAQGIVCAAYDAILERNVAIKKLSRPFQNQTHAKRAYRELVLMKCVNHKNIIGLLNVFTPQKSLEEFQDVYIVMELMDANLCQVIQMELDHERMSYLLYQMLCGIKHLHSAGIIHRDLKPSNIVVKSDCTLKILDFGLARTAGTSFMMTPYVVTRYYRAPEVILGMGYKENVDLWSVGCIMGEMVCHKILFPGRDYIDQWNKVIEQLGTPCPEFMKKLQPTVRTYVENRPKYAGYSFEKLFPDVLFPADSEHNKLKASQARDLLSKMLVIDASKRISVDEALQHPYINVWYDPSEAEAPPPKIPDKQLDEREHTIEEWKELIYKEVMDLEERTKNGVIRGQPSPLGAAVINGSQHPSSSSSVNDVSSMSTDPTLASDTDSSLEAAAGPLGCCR

[4] = system: Receptor-type tyrosine-protein kinase FLT3 (Homo sapiens), P36888 [N841I]; experiment: Inhibition of FLT3 N841I mutant assessed as enzyme activity at 1 uM relative to untreated control; set-up: scale not given: the % may be the effect or the level left
[5] = target: Casein kinase I isoform delta (Homo sapiens) (UniProt P48730); experiment: Inhibition of CSNK1D assessed as enzyme activity at 1 uM relative to untreated control; set-up: scale not given: the % may be the effect or the level left
Sequence of Casein kinase I isoform delta (Homo sapiens) (P48730 whole entry, looked up, canonical isoform): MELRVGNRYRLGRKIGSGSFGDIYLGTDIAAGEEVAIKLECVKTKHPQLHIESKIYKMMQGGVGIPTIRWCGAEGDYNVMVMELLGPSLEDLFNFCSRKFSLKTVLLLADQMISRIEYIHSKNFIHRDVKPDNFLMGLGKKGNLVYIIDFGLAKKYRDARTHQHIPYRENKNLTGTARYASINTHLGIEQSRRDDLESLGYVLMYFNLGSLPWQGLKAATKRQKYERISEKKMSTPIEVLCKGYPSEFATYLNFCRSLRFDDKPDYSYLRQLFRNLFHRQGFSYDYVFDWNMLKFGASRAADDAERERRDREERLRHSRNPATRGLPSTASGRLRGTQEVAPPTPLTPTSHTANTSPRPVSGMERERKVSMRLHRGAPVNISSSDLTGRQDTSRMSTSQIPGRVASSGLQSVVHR

[6] = target: 5'-AMP-activated protein kinase catalytic subunit alpha-1 (Homo sapiens) (UniProt Q13131); experiment: Inhibition of AMPKalpha1 assessed as enzyme activity at 1 uM relative to untreated control; set-up: scale not given: the % may be the effect or the level left
Sequence of 5'-AMP-activated protein kinase catalytic subunit alpha-1 (Homo sapiens) (Q13131 whole entry, looked up): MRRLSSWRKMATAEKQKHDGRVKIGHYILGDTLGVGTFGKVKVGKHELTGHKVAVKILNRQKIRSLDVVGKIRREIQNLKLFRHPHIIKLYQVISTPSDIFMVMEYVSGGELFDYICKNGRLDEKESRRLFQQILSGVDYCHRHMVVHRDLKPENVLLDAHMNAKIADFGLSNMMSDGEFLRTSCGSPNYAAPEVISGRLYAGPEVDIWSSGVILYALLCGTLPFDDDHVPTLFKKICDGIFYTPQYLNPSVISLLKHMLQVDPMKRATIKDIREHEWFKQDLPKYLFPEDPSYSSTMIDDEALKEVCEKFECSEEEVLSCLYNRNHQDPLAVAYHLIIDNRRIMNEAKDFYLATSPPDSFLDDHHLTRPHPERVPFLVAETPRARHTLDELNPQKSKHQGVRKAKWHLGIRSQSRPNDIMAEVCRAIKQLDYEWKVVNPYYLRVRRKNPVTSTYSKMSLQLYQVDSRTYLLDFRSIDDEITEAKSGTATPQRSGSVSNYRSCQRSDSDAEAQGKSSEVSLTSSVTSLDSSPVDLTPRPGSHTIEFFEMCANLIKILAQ

[7] = target: Serine/threonine-protein kinase TNNI3K (Homo sapiens) (UniProt Q59H18); experiment: Inhibition of TNNI3K assessed as enzyme activity at 1 uM relative to untreated control; set-up: scale not given: the % may be the effect or the level left
[8] = target: Dual specificity protein kinase CLK3 (Homo sapiens) (UniProt P49761); experiment: Inhibition of CLK3 assessed as enzyme activity at 1 uM relative to untreated control; set-up: scale not given: the % may be the effect or the level left
[9] = target: Activin receptor type-1 (Homo sapiens) (UniProt Q04771); experiment: Inhibition of ACVR1 assessed as enzyme activity at 1 uM relative to untreated control; set-up: scale not given: the % may be the effect or the level left
Sequence of Activin receptor type-1 (Homo sapiens) (Q04771 whole entry): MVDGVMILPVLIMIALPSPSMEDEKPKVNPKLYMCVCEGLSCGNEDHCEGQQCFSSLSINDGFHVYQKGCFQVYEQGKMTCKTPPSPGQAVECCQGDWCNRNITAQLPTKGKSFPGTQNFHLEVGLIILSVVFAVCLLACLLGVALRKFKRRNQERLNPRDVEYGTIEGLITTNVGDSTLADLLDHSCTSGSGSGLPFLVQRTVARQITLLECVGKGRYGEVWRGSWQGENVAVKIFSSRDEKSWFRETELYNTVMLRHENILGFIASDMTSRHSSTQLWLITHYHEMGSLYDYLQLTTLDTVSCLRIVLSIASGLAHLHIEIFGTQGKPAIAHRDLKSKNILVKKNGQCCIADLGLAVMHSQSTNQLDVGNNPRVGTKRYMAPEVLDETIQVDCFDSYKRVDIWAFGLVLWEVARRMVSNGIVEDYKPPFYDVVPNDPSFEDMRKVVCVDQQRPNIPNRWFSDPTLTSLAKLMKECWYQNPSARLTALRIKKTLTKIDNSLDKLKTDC

[10] = target: Ephrin type-A receptor 6 (Homo sapiens) (UniProt Q9UF33); experiment: Inhibition of EPHA6 assessed as enzyme activity at 1 uM relative to untreated control; set-up: scale not given: the % may be the effect or the level left
[11] = target: Cyclin-dependent kinase 5 (Homo sapiens) (UniProt Q00535); experiment: Inhibition of CDK5 assessed as enzyme activity at 1 uM relative to untreated control; set-up: scale not given: the % may be the effect or the level left
[12] = target: Tyrosine-protein kinase Mer (Homo sapiens) (UniProt Q12866); experiment: Inhibition of MERTK assessed as enzyme activity at 1 uM relative to untreated control; set-up: scale not given: the % may be the effect or the level left
[13] = target: Cyclin-dependent kinase 15 (Homo sapiens) (UniProt Q96Q40); experiment: Inhibition of PFTAIRE2 assessed as enzyme activity at 1 uM relative to untreated control; set-up: scale not given: the % may be the effect or the level left
[14] = system: Tyrosine-protein kinase ABL1 (Homo sapiens), P00519 [Q252H]; experiment: Inhibition of ABL1 Q252H mutant assessed as enzyme activity at 1 uM relative to untreated control; set-up: scale not given: the % may be the effect or the level left
[15] = target: Death-associated protein kinase 1 (Homo sapiens) (UniProt P53355); experiment: Inhibition of DAPK1 assessed as enzyme activity at 1 uM relative to untreated control; set-up: scale not given: the % may be the effect or the level left
[16] = target: Death-associated protein kinase 3 (Homo sapiens) (UniProt O43293); experiment: Inhibition of DAPK3 assessed as enzyme activity at 1 uM relative to untreated control; set-up: scale not given: the % may be the effect or the level left
Sequence of Death-associated protein kinase 3 (Homo sapiens) (O43293 whole entry, looked up): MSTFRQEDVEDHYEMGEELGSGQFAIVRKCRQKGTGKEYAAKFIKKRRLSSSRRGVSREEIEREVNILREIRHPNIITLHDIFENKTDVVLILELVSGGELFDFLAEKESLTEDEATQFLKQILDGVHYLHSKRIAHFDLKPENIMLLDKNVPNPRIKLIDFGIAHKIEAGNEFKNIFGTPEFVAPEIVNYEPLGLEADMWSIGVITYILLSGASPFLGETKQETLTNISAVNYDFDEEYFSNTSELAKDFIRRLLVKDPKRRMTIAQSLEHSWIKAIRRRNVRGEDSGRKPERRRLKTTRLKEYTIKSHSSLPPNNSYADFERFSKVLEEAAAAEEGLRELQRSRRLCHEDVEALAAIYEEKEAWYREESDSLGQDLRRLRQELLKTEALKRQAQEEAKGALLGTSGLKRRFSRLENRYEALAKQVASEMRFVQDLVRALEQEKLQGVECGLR

[17] = target: Tyrosine-protein kinase ABL2 (Homo sapiens) (UniProt P42684); experiment: Inhibition of ABL2 assessed as enzyme activity at 1 uM relative to untreated control; set-up: scale not given: the % may be the effect or the level left
[18] = target: Casein kinase I isoform gamma-3 (Homo sapiens) (UniProt Q9Y6M4); experiment: Inhibition of CSNK1G3 assessed as enzyme activity at 1 uM relative to untreated control; set-up: scale not given: the % may be the effect or the level left
[19] = system: Receptor-type tyrosine-protein kinase FLT3 (Homo sapiens), P36888 [K663Q]; experiment: Inhibition of FLT3 K663Q mutant assessed as enzyme activity at 1 uM relative to untreated control; set-up: scale not given: the % may be the effect or the level left
[20] = target: Serine/threonine-protein kinase SIK1 (Homo sapiens) (UniProt P57059); experiment: Inhibition of SNF1LK assessed as enzyme activity at 1 uM relative to untreated control; set-up: scale not given: the % may be the effect or the level left
Sequence of Serine/threonine-protein kinase SIK1 (Homo sapiens) (P57059 whole entry): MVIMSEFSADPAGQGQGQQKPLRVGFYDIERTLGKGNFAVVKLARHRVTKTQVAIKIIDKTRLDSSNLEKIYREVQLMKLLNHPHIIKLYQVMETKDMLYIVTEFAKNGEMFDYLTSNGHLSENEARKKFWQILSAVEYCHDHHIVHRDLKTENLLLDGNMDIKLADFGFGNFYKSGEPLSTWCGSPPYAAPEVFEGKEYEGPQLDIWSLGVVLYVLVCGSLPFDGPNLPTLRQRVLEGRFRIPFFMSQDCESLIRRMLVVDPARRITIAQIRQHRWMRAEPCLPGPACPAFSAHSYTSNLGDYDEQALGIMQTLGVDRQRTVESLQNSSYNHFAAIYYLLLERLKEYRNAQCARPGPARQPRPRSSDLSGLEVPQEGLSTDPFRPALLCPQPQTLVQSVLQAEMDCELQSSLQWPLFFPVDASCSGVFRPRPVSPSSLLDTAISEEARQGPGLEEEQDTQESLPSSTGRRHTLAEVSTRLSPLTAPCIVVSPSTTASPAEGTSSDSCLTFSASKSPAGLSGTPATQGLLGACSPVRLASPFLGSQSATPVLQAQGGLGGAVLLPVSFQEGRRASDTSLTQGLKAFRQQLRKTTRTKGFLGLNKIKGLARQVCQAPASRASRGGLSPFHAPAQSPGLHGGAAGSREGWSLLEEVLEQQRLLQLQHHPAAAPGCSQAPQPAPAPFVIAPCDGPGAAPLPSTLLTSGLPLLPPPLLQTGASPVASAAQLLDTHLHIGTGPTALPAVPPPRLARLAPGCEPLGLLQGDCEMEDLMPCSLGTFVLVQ

[21] = target: Serine/threonine-protein kinase Nek1 (Homo sapiens) (UniProt Q96PY6); experiment: Inhibition of NEK1 assessed as enzyme activity at 1 uM relative to untreated control; set-up: scale not given: the % may be the effect or the level left
[22] = target: Dual specificity tyrosine-phosphorylation-regulated kinase 1B (Homo sapiens) (UniProt Q9Y463); experiment: Inhibition of DYRK1B assessed as enzyme activity at 1 uM relative to untreated control; set-up: scale not given: the % may be the effect or the level left
[23] = target: Tyrosine-protein kinase Lyn (Homo sapiens) (UniProt P07948); experiment: Inhibition of LYN assessed as enzyme activity at 1 uM relative to untreated control; set-up: scale not given: the % may be the effect or the level left
Sequence of Tyrosine-protein kinase Lyn (Homo sapiens) (P07948 2-512 limits assumed): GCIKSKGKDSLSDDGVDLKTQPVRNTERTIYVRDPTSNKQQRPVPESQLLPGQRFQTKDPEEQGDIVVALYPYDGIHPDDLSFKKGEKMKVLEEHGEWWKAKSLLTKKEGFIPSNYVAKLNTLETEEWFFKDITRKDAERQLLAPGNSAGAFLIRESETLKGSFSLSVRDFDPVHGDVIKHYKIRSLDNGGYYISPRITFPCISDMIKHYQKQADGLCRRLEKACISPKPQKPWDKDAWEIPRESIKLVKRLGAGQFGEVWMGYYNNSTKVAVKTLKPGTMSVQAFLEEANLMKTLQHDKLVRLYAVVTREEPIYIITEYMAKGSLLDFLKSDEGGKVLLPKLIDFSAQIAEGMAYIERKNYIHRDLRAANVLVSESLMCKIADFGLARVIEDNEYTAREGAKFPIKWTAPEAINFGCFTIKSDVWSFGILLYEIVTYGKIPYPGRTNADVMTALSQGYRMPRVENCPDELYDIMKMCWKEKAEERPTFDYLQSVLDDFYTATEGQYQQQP

[24] = target: Ephrin type-A receptor 4 (Homo sapiens) (UniProt P54764); experiment: Inhibition of EPHA4 assessed as enzyme activity at 1 uM relative to untreated control; set-up: scale not given: the % may be the effect or the level left
[25] = target: Myosin-IIIa (Homo sapiens) (UniProt Q8NEV4); experiment: Inhibition of MYO3A assessed as enzyme activity at 1 uM relative to untreated control; set-up: scale not given: the % may be the effect or the level left
[26] = target: Dual specificity testis-specific protein kinase 1 (Homo sapiens) (UniProt Q15569); experiment: Inhibition of TESK1 assessed as enzyme activity at 1 uM relative to untreated control; set-up: scale not given: the % may be the effect or the level left
[27] = system: Epidermal growth factor receptor (Homo sapiens), P00533 [UNDEFINED MUTATION]; experiment: Inhibition of EGFR L747-E749del A750P assessed as enzyme activity at 1 uM relative to untreated control; type: protein assay; set-up: scale not given: the % may be the effect or the level left
[28] = target: Serine/threonine-protein kinase tousled-like 1 (Homo sapiens) (UniProt Q9UKI8); experiment: Inhibition of TLK1 assessed as enzyme activity at 1 uM relative to untreated control; set-up: scale not given: the % may be the effect or the level left
[29] = target: Serine/threonine-protein kinase pim-1 (Homo sapiens) (UniProt P11309); experiment: Inhibition of PIM1 assessed as enzyme activity at 1 uM relative to untreated control; set-up: scale not given: the % may be the effect or the level left
[30] = target: Serine/threonine-protein kinase Nek6 (Homo sapiens) (UniProt Q9HC98); experiment: Inhibition of NEK6 assessed as enzyme activity at 1 uM relative to untreated control; set-up: scale not given: the % may be the effect or the level left
[31] = target: Activin receptor type-2B (Homo sapiens) (UniProt Q13705); experiment: Inhibition of ACVR2B assessed as enzyme activity at 1 uM relative to untreated control; set-up: scale not given: the % may be the effect or the level left
[32] = target: Epidermal growth factor receptor (Homo sapiens) (UniProt P04626+P00533+Q15303+P21860); experiment: Inhibition of EGFR E746-A750del mutant assessed as enzyme activity at 1 uM relative to untreated control; type: protein assay; set-up: scale not given: the % may be the effect or the level left
[33] = target: Serine/threonine-protein kinase PLK1 (Homo sapiens) (UniProt P53350); experiment: Inhibition of PLK1 assessed as enzyme activity at 1 uM relative to untreated control; set-up: scale not given: the % may be the effect or the level left
Sequence of Serine/threonine-protein kinase PLK1 (Homo sapiens) (P53350 whole entry): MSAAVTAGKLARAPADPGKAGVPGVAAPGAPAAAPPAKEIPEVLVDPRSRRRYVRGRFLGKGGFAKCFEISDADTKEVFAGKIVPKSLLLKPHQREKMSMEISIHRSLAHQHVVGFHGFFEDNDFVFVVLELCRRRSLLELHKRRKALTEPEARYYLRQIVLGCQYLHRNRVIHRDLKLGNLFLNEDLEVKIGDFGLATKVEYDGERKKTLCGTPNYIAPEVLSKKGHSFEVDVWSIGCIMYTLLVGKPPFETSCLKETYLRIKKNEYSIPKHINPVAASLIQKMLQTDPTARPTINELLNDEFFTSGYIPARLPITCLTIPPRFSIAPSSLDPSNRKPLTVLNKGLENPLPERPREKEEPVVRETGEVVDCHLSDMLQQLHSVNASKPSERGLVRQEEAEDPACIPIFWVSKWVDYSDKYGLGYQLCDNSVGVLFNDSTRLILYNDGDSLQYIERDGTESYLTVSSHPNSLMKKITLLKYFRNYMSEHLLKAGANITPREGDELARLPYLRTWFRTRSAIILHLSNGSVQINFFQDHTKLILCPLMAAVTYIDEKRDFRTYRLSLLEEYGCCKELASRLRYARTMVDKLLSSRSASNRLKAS

[34] = target: cAMP-dependent protein kinase catalytic subunit PRKX (Homo sapiens) (UniProt P51817); experiment: Inhibition of PRKX assessed as enzyme activity at 1 uM relative to untreated control; set-up: scale not given: the % may be the effect or the level left
[35] = target: Inhibitor of nuclear factor kappa-B kinase subunit epsilon (Homo sapiens) (UniProt Q14164); experiment: Inhibition of IKK-epsilon assessed as enzyme activity at 1 uM relative to untreated control; set-up: scale not given: the % may be the effect or the level left

Cc1ccc2c(Nc3ccc(Cl)cc3)nccc2c1Nc1ncccc1-c1ncnc2[nH]cnc12.Cl.Cl.Cl
Activity [1]: 100%
inhibition in vivo at 2 mg/kg (A-375): 90%
Activity [2]: 100%
Activity [3]: 2.7%
Activity [4]: 100%
Activity [5]: 99%
Activity [6]: 89%
Activity [7]: 21%
Activity [8]: 94%
Activity [9]: 100%
Activity [10]: 2.8%
Activity [11]: 100%
Activity [12]: 99%
Activity [13]: 80%
Activity [14]: 71%
Activity [15]: 90%
Activity [16]: 100%
Activity [17]: 42%
Activity [18]: 100%
Activity [19]: 75%
Activity [20]: 75%
Activity [21]: 100%
Activity [22]: 100%
Activity [23]: 18%
Activity [24]: 22%
Activity [25]: 99%
Activity [26]: 21%
Activity [27]: 89%
Activity [28]: 83%
Activity [29]: 93%
Activity [30]: 100%
Activity [31]: 100%
Activity [32]: 86%
Activity [33]: 100%
Activity [34]: 65%
Activity [35]: 73%
